Laboratory results published in patent publication US5773569A (Affymax Technologies N.V., priority 1995, dated 1998).
Where two headings read alike, the source gives them in different places. Residues, ends and D or L forms follow the SMILES beside them.

How the values were obtained:
Assay in all cases: cell-based
[1] = target: T1, truncated human erythropoietin receptor cell line (Homo sapiens, UniProt P19235)
T1 sequence (P19235 25-468 limits assumed): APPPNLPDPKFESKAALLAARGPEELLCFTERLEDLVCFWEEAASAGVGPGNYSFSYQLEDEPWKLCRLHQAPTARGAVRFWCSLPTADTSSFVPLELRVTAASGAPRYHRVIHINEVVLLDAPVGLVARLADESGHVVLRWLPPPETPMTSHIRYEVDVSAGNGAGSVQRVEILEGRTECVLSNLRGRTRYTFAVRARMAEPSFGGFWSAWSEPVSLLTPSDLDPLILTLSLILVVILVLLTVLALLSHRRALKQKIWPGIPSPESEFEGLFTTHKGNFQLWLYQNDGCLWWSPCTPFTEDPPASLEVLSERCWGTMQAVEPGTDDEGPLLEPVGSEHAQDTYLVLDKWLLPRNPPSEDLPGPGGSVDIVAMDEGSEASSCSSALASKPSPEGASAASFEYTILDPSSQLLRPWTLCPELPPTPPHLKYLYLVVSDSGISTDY
Method: Cells are harvested and resuspended in fresh medium without growth factor (erytiropoietin) for 24 hr. Cells are counted and resuspended at a concentration of 800,000 cells/ml. Approximately forty thousand cells (50μ) are added to each well of a 96 well microtiter plate. Peptide is added to each well in triplicate. A standard dose response determination is run with each series of peptides. After a forty-two hr incubation (≈2 doubling), each well is pulsed with 1 μCi/well Thymidine. Cells are incubated an additional six hr at which time cells are harvested and counted to assess thymidine incorporation as an indicator of cell proliferation.

[2] = target: T2, murine receptor (FDC-P1/ER cells) (Mus musculus, UniProt P14753); details: IA = inactive
T2 sequence (P14753 25-507): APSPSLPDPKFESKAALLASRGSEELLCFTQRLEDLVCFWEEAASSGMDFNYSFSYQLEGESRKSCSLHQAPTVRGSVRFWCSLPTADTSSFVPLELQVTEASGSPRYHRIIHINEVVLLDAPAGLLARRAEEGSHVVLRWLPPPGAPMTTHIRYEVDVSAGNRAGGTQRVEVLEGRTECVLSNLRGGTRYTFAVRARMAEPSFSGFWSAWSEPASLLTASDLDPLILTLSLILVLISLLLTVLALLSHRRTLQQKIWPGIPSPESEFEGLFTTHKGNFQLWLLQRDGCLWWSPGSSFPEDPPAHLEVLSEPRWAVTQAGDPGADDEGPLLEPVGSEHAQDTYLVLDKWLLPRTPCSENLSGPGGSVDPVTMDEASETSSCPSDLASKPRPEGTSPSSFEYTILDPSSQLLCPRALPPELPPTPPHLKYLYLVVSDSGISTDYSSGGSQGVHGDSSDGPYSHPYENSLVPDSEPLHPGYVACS

[3] = target: T3, FDCP-1/hEPO-R cells (human EPO-R) (Homo sapiens, UniProt P19235)
T3 sequence (P19235 25-508): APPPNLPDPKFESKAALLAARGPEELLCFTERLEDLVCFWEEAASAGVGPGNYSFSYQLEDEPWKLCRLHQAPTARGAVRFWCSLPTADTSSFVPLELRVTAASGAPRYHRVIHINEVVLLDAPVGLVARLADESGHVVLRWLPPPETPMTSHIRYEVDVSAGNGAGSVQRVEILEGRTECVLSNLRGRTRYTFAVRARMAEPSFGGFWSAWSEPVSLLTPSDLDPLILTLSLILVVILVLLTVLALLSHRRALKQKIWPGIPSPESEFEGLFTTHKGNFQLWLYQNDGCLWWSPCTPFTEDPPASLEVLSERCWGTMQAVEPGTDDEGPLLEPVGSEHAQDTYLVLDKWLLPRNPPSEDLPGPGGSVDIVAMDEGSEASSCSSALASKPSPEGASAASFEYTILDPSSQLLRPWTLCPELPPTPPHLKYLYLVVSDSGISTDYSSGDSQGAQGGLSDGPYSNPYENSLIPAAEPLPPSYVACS
Method: One assay utilized FDCP-1, a growth factor depenent murne multi-potential primitive hematopoietic progenitor cell line (see, e.g., Dexter et al. (1980) J. Exp. Med. 152:1036-1047), as the parental cell line. This cell line can proliferate, but not differentiate, when supplemented with WEHI3-conditioned media (a medium that contains IL-3, ATCC number T1B68).
In brief, the cells are grown to half stationary density in the presence of the necessary growth factors. The cells are then washed in PBS and starved for 16-24 hours in whole media without the growth factors. After determining the viability of the cells, stock solutions (in whole media without the growth factors) are made to give about 10^5 cells per 50 microliters. […] Cells (50 microliters) are added to each well and the cells are incubated 24-48 hours, at which point the negative controls should die or be quiescent. Cell proliferation is then measured by techniques known in the art, such as an MTT assay which correlates with ^3 H-thymidine incorporation as an indication of cell proliferation (see, Mosmann (1983) J. Immnunol. Methods 65:55).
In addition, this peptide was preincubated with streptavidin in serum-free HEPES-buffered RPMI at a 4:1 molar ratio, as above. The complex was tested for stimulation of cell proliferation in an FDCP-1/hEPO-R bioassay alongside. free […] […]

[4] = EPO-ED50 (μM)* murine receptor, Tables 20-21
[5] = EPO-ED50 (μM), Tables 17-19, amount for half maximal level of EPO dependent proliferation

Row | Compound | EC50 [1] [nM] | EC50 [2, 4] [µM] | EC50 [2, 5] [µM] | EC50 [3] [nM] | EC50 ([3]; EPO-ED50, FIG. 10) [nM]
1 | CC(C)C[C@@H]1NC(=O)[C@@H]2CCCN2C(=O)CNC(=O)[C@H](Cc2ccccc2)NC(=O)[C@H](Cc2c[nH]cn2)NC(=O)[C@@H](NC(=O)[C@H](CO)NC(=O)[C@H](Cc2ccc(O)cc2)NC(=O)[C@H](CCCCN)NC(=O)[C@H](CCCNC(=N)N)NC(=O)CNC(=O)[C@@H](N)CC(C)C)CSSC[C@@H](C(=O)N[C@@H](CCC(N)=O)C(=O)N2CCC[C@H]2C(=O)N[C@@H](C)C(=O)N[C@@H](CCCCN)C(=O)N[C@@H](CCCCN)C(=O)N[C@@H](CC(=O)O)C(N)=O)NC(=O)[C@H](C(C)C)NC(=O)[C@H](Cc2c[nH]c3ccccc23)NC(=O)[C@H]([C@@H](C)O)NC1=O [RWJ 61757] (HELM PEPTIDE1{L.G.R.K.Y.S.C.H.F.G.P.L.T.W.V.C.Q.P.A.K.K.D.[am]}$PEPTIDE1,PEPTIDE1,7:R3-16:R3$$$V2.0) | 150 | 0.11 | – | – | –
2 | CC(C)C[C@@H]1NC(=O)[C@@H]2CCCN2C(=O)CNC(=O)[C@H](Cc2ccccc2)NC(=O)[C@H](Cc2c[nH]cn2)NC(=O)[C@@H](NC(=O)[C@H](CO)NC(=O)[C@H](Cc2ccc(O)cc2)NC(=O)[C@@H](NC(=O)CNC(=O)CN)[C@@H](C)O)CSSC[C@@H](C(=O)N[C@@H](CCCCN)C(=O)N2CCC[C@H]2C(=O)N[C@@H](CCC(N)=O)C(=O)NCC(=O)NCC(N)=O)NC(=O)[C@H](C(C)C)NC(=O)[C@H](Cc2ccccc2)NC(=O)[C@H]([C@@H](C)O)NC1=O [RWJ 62145] (HELM PEPTIDE1{G.G.T.Y.S.C.H.F.G.P.L.T.F.V.C.K.P.Q.G.G.[am]}$PEPTIDE1,PEPTIDE1,6:R3-15:R3$$$V2.0) | 500 | – | 0.25 | – | –
3 | CSCC[C@@H]1NC(=O)[C@H](Cc2c[nH]cn2)NC(=O)[C@@H](NC(=O)[C@H](C)NC(=O)[C@H](Cc2ccc(O)cc2)NC(=O)[C@H](CC(C)C)NC(=O)CNC(=O)CN)CSSC[C@@H](C(=O)N[C@@H](CCC(N)=O)C(=O)N2CCC[C@H]2C(=O)N[C@@H](CC(C)C)C(=O)N[C@@H](CCCNC(=N)N)C(=O)NCC(N)=O)NC(=O)[C@H](C(C)C)NC(=O)[C@H](Cc2c[nH]c3ccccc23)NC(=O)[C@H]([C@@H](C)O)NC(=O)[C@H](CCSC)NC(=O)[C@@H]2CCCN2C(=O)CNC1=O [RWJ 61718] | 80 | 0.15 | 0.1 | – | –
4 | CC(C)C[C@@H]1NC(=O)[C@@H]2CCCN2C(=O)CNC(=O)[C@H](Cc2ccccc2)NC(=O)[C@H](Cc2c[nH]cn2)NC(=O)[C@@H](NC(=O)[C@H](CO)NC(=O)[C@H](Cc2ccc(O)cc2)NC(=O)[C@@H](NC(=O)CNC(=O)CN)[C@@H](C)O)CSSC[C@@H](C(=O)N[C@@H](CCCCN)C(=O)N2CCC[C@H]2C(=O)N[C@@H](CCC(N)=O)C(=O)NCC(=O)NCC(N)=O)NC(=O)[C@H](C(C)C)NC(=O)[C@H](Cc2c[nH]c3ccccc23)NC(=O)[C@H]([C@@H](C)O)NC1=O [RWJ 61233] (HELM PEPTIDE1{G.G.T.Y.S.C.H.F.G.P.L.T.W.V.C.K.P.Q.G.G.[am]}$PEPTIDE1,PEPTIDE1,6:R3-15:R3$$$V2.0) | 100 | – | 0.1 | 400 | ~1000
5 | CC(C)C[C@@H]1NC(=O)[C@@H]2CCCN2C(=O)CNC(=O)[C@H](Cc2ccccc2)NC(=O)[C@H](Cc2c[nH]cn2)NC(=O)[C@@H](NC(=O)[C@H](CO)NC(=O)[C@@H](N)Cc2ccc(O)cc2)CSSC[C@@H](C(=O)N[C@@H](CCCCN)C(N)=O)NC(=O)[C@H](C(C)C)NC(=O)[C@H](Cc2c[nH]c3ccccc23)NC(=O)[C@H]([C@@H](C)O)NC1=O [RWJ 61279] (HELM PEPTIDE1{Y.S.C.H.F.G.P.L.T.W.V.C.K.[am]}$PEPTIDE1,PEPTIDE1,3:R3-12:R3$$$V2.0) | – | – | 3 | – | –
6 | CC(C)C[C@@H]1NC(=O)[C@@H]2CCCN2C(=O)CNC(=O)[C@H](Cc2ccccc2)NC(=O)[C@H](Cc2c[nH]cn2)NC(=O)[C@@H](NC(=O)[C@H](CO)NC(=O)[C@@H](N)Cc2ccc(O)cc2)CSSC[C@@H](C(=O)N[C@@H](CCCCN)C(=O)N2CCC[C@H]2C(N)=O)NC(=O)[C@H](C(C)C)NC(=O)[C@H](Cc2c[nH]c3ccccc23)NC(=O)[C@H]([C@@H](C)O)NC1=O [RWJ 61232] (HELM PEPTIDE1{Y.S.C.H.F.G.P.L.T.W.V.C.K.P.[am]}$PEPTIDE1,PEPTIDE1,3:R3-12:R3$$$V2.0) | – | – | 20 | – | –
7 | CC(C)C[C@@H]1NC(=O)[C@@H]2CCCN2C(=O)CNC(=O)[C@H](Cc2ccccc2)NC(=O)[C@H](Cc2c[nH]cn2)NC(=O)[C@@H](NC(=O)[C@H](CO)NC(=O)[C@H](Cc2ccc(F)cc2)NC(=O)[C@@H](NC(=O)CNC(=O)CN)[C@@H](C)O)CSSC[C@@H](C(=O)N[C@@H](CCCCN)C(=O)N2CCC[C@H]2C(=O)N[C@@H](CCC(N)=O)C(=O)NCC(=O)NCC(N)=O)NC(=O)[C@H](C(C)C)NC(=O)[C@H](Cc2c[nH]c3ccccc23)NC(=O)[C@H]([C@@H](C)O)NC1=O [RWJ 62020, GGTXSCHFGPLTWVCKPQGG] (HELM PEPTIDE1{G.G.T.[O=C([C@H](Cc1ccc(F)cc1)N[*:1])[*:2]].S.C.H.F.G.P.L.T.W.V.C.K.P.Q.G.G.[am]}$PEPTIDE1,PEPTIDE1,6:R3-15:R3$$$V2.0) | 100 | 1 | – | – | –
8 | CC[C@H](C)[C@H](NC(=O)[C@H](Cc1ccc(O)cc1)NC(=O)[C@H](CCC(N)=O)NC(=O)[C@H](C)NC(=O)[C@@H](NC(=O)[C@@H](N)[C@@H](C)O)[C@@H](C)CC)C(=O)N[C@H]1CSSC[C@@H](C(=O)N[C@@H](CCCNC(=N)N)C(=O)N2CCC[C@H]2C(=O)N[C@@H](CO)C(=O)N2CCC[C@H]2C(=O)N[C@@H](CCCCN)C(=O)N[C@@H](C)C(N)=O)NC(=O)[C@H](CCC(=O)O)NC(=O)[C@H](Cc2c[nH]c3ccccc23)NC(=O)[C@H]([C@@H](C)O)NC(=O)[C@H](CCC(=O)O)NC(=O)[C@@H]2CCCN2C(=O)CNC(=O)[C@H](CCSC)NC(=O)[C@H](Cc2ccc(O)cc2)NC1=O [AF11654] (HELM PEPTIDE1{T.I.A.Q.Y.I.C.Y.M.G.P.E.T.W.E.C.R.P.S.P.K.A.[am]}$PEPTIDE1,PEPTIDE1,7:R3-16:R3$$$V2.0) | 20 | 0.2 | – | – | –
